Measurements published in patent publication US20050004225A1, “Oxidoreductase inhibitors and methods of screening and using thereof” (priority 2003, published 2005).
Like-named read-outs stand apart in the source and are kept apart here. Blank lines part the entries; values can stand above or below the compound they belong to.

Legend:
human aldose reductase = molecular target: T1, human aldose reductase (Homo sapiens, UniProt P15121); experiment: Inhibition of recombinant human aldose reductase, DL-glyceraldehyde reduction, NADPH at 340 nm; format: biochemical
T1 construct: His-tag (cleaved yes); made in house; host or cells: E. coli BL21
Experimental: DL Glyceraldehyde, NADPH, and Bezafibrate (2-[4-[2-(4-chlorobenzamiso)ethyl]phenoxy]-2-methyl-propionic acid) were purchased from Sigma-Aldrich. All other chemicals used were of the highest purity available.
Human aldose reductase was recombinantly expressed in E. coli BL21, purified, and used for testing the efficacy of Bezafibrate in regulating aldehyde reduction reaction. […] Over night grown culture was inoculated (25 ml/l) into four 3 l flasks each containing 11 LB supplemented with ampicillin (50 μg/ml) at 37° C. with shaking (250 rpm) for 3 to 4 h until an attenuance (A600) of ˜0.7. Isopropyl β-D-thiogalactoside (IPTG, 1 mM) was added to the culture and was further incubated for 3 h to induce the expression of human aldose reductase gene. […] Cell pellets were resuspended in 80 ml of Talon extraction/wash buffer, (pH 7.9, Clonetech), and lysed by sonication with ten pulses (30 s each) and centrifuged at 12 000 g. […] The slurry was then transferred into a column allowing the matrix to pack and the supernatant to pass through at a flow rate of […]. The column was washed with 50 ml of Talon extraction/wash buffer, and the enzyme was eluted with 50 ml of Talon elution buffer. The eluted protein was dialyzed overnight using Spectra/Por 5-8 kDa MWCO at 4° C. in 50 mM sodium phosphate buffer (pH 7.0) containing 1 mM 2-mercaptoethanol. His-tag from the dialyzed protein was removed using thrombin cleavage kit (Novagen) by adding 1 μl of thrombin to 4 mg of protein and incubating overnight at room temperature. The purity of the protein at each stage of purification was assessed by SDS PAGE, and staining the gels with Coomassie Blue.
Activity with various concentrations of DL glyceraldehyde in the absence and, in the presence of various concentrations of Bezafibrate was determined by monitoring the change in NADPH concentration at room temperature 28±2° C. in a Beckman DU600 model spectrophotometer by measuring the absorbance at 340 nm, in 0.01 M sodium phosphate buffer (pH 6.2). Kinetic parameters were obtained from initial-rate activity measurements, with substrate concentrations of 0.05 mM to 10 mM. Each individual rate measurement was done in duplicate. At least three independent determinations were performed for each kinetic constant. Values were calculated using Sigmaplot Ver 8.0 (SPSS Inc.) using a non-linear Marquardt's regression algorithm that computes the coefficients (parameters) of the independent variable(s) that give the “best fit” between the equation and the data. Inhibition-constant (Ki) and, the IC50 values for bezofibrate was calculated from the secondary plot of slope values from the double-reciprocal plot versus inhibitor concentration and from the plot of rate of reaction versus inhibitor concentration respectively.
The initial rates in the presence of Bezafibrate were analyzed by using equation 1: v=Vmax/((1+Km/S)*(1+I/Ki)/(1+I*beta/Ki)) (1) where, v=rate of reaction, Vmax=maximum initial velocity for the uninhibited reaction, Km=Michaelis constant in the absence of inhibitor, Ki=inhibition constant and beta=the rate constant when enzyme substrate complex breaks down to Enzyme and Product.

rat aldose reductase = rat aldose reductase (Rattus norvegicus, UniProt P07943); conditions: cited from earlier work
[1] = tested on: HeLa cervical carcinoma cells; conditions: cited from earlier work
[2] = tested on: B16 melanoma-induced cachexia; conditions: cited from earlier work; for B16 melanoma-induced cachexia: mice
hepatoma cells = conditions: in the presence of 3-deoxyglucosone and glyceraldehydes; cited from earlier work
[3] = tested on: isolated rabbit cardiac myocytes; experiment: Cellular metabolism of adenine propenal in isolated cardiac myocytes (HPLC, ESI+/MS); format: cell-based; conditions: 10 μM adenine propenal
Experimental: (§1) The cellular metabolism of base propenals was examined in isolated rabbit cardiac myocytes and COS-7 cells. The myocytes from rabbit ventricle were isolated as described in (46) and the COS-7 cells were obtained from ATCC. For metabolic studies, the cells were incubated with 10 μM of adenine propenal in Hepes-Ringer's buffer, pH 7.4. After 30 min of incubation, the medium was removed, and the adenine propenal and metabolites in the medium were separated by HPLC. […] To establish the structure of the glutathione conjugate peak I of the metabolites was injected into ESI^+/MS.
(§2) To probe the role of AR further, whether upregulation of AR would enhance the reductive metabolism of adenine propenal was examined. To enhance the expression of AR, the COS-7 cells were transfected with AR cDNA using lipofectamine.

COS-7 cells [4] = experiment: Cellular metabolism of adenine propenal in COS-7 cells (HPLC, ESI+/MS); format: cell-based; conditions: 10 μM adenine propenal; for reduction of the glutathione conjugate of adenine propenal in the presence of AR inhibitor: COS-7 cells
Experimental: as §1, §2
To examine changes in metabolism, the cells transfected with AR cDNA and the empty vector were incubated with 10 μM adenine propenal as described before. After 30 min of incubation, the medium was collected and separated by HPLC.

COS-7 cells [5] = experiment: Toxicity of adenine propenal to COS-7 cells, MTT assay; format: cell-based; conditions: 100 μM adenine propenal, pre-incubated with 100 μM sorbinil
[6] = molecular target: T2, rat lens aldose reductase (Rattus norvegicus, UniProt P07943); conditions: cited from earlier work
T2 construct: host or cells: rat lens (as named)

[7] = tested on: murine adenocarcinoma colon26-induced cachexia; conditions: cited from earlier work
human monocytes = human monocytes stimulated by LPS in vitro; cited from earlier work
interleukin-1 (IL-1) = conditions: mice; cited from earlier work
[8] = reduction of glyceraldehyde, read-out: Ki value
[9] = saturating substrate (10 mM DL-glyceraldehyde), read-out: IC50 value
[10] = Table I, recombinant human AR, reduction of DL-glyceraldehyde, read-out: K1

inhibitory effect on AR activity (in words) (human aldose reductase): inhibitory effect
Ki (human aldose reductase; [8]): 1.04 ± 0.047 µM
IC50 (human aldose reductase; [9]): 1.2 ± 0.1 µM
SMILES: CC(C)(Oc1ccc(Cl)cc1)C(=O)O [2-4-Chlorophenoxy clofibric acid]

Ki (human aldose reductase; apparent noncompetitive inhibition constant, read-out: Ki value, unit inferred): 2 µM
IC50 (human aldose reductase; [9]): 3.8 µM
SMILES: CC(C)(Oc1ccc(CCNC(=O)c2ccc(Cl)cc2)cc1)C(=O)O [Bezafibrate, 2-[4-[2-(4-chlorobenzamiso)ethyl]phenoxy]-2-methyl-propionic acid]

SMILES: COc1cccc2c1C(=O)c1c(O)c3c(c(O)c1C2=O)C[C@@](O)(C(C)=O)C[C@@H]3O[C@H]1C[C@H](N)[C@H](O)[C@H](C)O1 [Daunorubicin]
inhibitory effect on AR activity (in words) (human aldose reductase): inhibitory effects
Ki (human aldose reductase; [10]): 21.4 ± 7.67 µM
IC50 (human aldose reductase; [9]): 5 µM

SMILES: COc1cccc2c1C(=O)c1c(O)c3c(c(O)c1C2=O)C[C@@](O)(C(=O)CO)C[C@@H]3O[C@H]1C[C@H](N)[C@H](O)[C@H](C)O1 [Doxorubicin]
IC50 (human aldose reductase): 0.2 µM
Ki (human aldose reductase): 0.24 ± 0.02 µM

SMILES: CCOC(=O)C1=C(O)C(=O)N(Cc2ccccc2)C1 [EBPC, ethyl 1-benzyl-3-hydroxy-2(5H)-oxopyrrole-4-carboxylate]
inhibition of rat aldose reductase (rat aldose reductase): inhibits
cell death or proliferation, EBPC alone ([1]; 30 or 50 μM EBPC alone): no effect
percentage of dead cells ([1]; 24 h, doxorubicin or 30 μM cisplatin with 30 or 50 μM EBPC, vs untreated control): significant increase
extracellular signal-regulated kinase (ERK) activity ([1]; EBPC with chemotherapeutic drugs vs chemotherapeutic drugs): increased
cytotoxic effects of doxorubicin and cisplatin ([1]; HeLa cells, combination with EBPC): enhances

SMILES: COc1cccc2c1C(=O)c1c(O)c3c(c(O)c1C2=O)C[C@@](O)(C(=O)CO)C[C@@H]3O[C@H]1C[C@H](N)[C@@H](O)[C@H](C)O1 [Epirubicin]
IC50 (human aldose reductase): 5.5 µM
Ki (human aldose reductase): 77.6 µM

inhibitory effect on AR activity (in words) (human aldose reductase): inhibitory effect
IC50 (human aldose reductase; Table I, recombinant human AR, reduction of DL-glyceraldehyde, read-out: IC50): 6.5 ± 0.02 µM
Ki (human aldose reductase; [10]): 3.5 ± 0.79 µM
Ki (human aldose reductase; [8]): 2.74 ± 0.072 µM
IC50 (human aldose reductase; [9]): 3 ± 0.2 µM
SMILES: Cc1ccc(C)c(OCCCC(C)(C)C(=O)O)c1 [Gemfibrozil]

inhibitory effect on AR activity (in words) (human aldose reductase): inhibitory effects
Ki (human aldose reductase; [10]): 20.5 ± 1.5 µM
IC50 (human aldose reductase; [9]): 5.6 µM
SMILES: CC(=O)[C@]1(O)Cc2c(O)c3c(c(O)c2[C@@H](O[C@H]2C[C@H](N)[C@H](O)[C@H](C)O2)C1)C(=O)c1ccccc1C3=O [Idamycin]

SMILES: O=[N+]([O-])NC1=NCCN1Cc1ccc(Cl)nc1 [Imidcloprid, N-(6-chloropyridin-3-ylmethyl)-2-nitroiminoimidazolidine]
IC50 (human aldose reductase; IC50 value, saturating substrate (10 mM DL-glyceraldehyde)): 1.5 µM
Ki (human aldose reductase; Ki value, reduction of glyceraldehyde): 12.6 µM

SMILES: CCOP(=O)(Cc1ccc(C(=O)Nc2ccc(Br)cc2C#N)cc1)OCC [NO-1886]
weight of epididymal fat and whole body lipid ([2]; mice after intraperitoneal inoculation of B16): ameliorated
B16 melanoma-induced cachexia [2]: alleviated

SMILES: CC(/C=C1\SC(=S)N(CC(=O)O)C1=O)=C\c1ccccc1 [ONO-2235]
viability of hepatoma cells (hepatoma cells): decreased

inhibitory effect on AR activity (in words) (human aldose reductase): inhibitory effects
SMILES: O=C1NC(=O)[C@@]2(CCOc3ccc(F)cc32)N1 [Sorbinil]
reduction of the glutathione conjugate of adenine propenal in the presence of AR inhibitor [3]: significantly prevented
adenine propenol peak (22 min) in AR cDNA-transfected cells (COS-7 cells [4]; AR-transfected COS-7 cells, 30 min, in the presence of sorbinil): completely abolished
reduction of the glutathione conjugate of adenine propenal in the presence of AR inhibitor (COS-7 cells [4]): significantly prevented
half life of cell viability after pre-incubation with AR inhibitor (COS-7 cells [5]): 6.1 ± 0.5 h

SMILES: N#CC(=C(/N)Sc1ccccc1N)/C(C#N)=C(\N)Sc1ccccc1N [U0126]
EBPC-mediated enhancement of cell death ([1]; inhibition of ERK activation by MEK inhibitor): reversed

inhibitory effect on AR activity (in words) (human aldose reductase): inhibitory effects
SMILES: O=C(O)Cc1nn(Cc2nc3cc(C(F)(F)F)ccc3s2)c(=O)c2ccccc12 [Zopolrestat]

SMILES: OC/C=C/c1ccccc1 [ainnnamyl alcohol]
inhibition against rat AR [6]: weak inhibition

SMILES: O=CC=Cc1ccccc1 [cinnamaldehyde]
inhibition against rat AR [6]: high potency

SMILES: C=CCc1ccc(O)c(OC)c1 [eugenol]
inhibition against rat AR [6]: weak inhibition

SMILES: O=C(O)Cc1nn(Cc2ccc(Br)cc2F)c(=O)c2ccccc12 [ponalrestat]
B16 melanoma-induced cachexia [2]: inhibited
survival ([7]; colon26 bearing mice): significantly prolonged
weight of body mass, epididymal fat, gastrocnemius muscle and carcass ([7]; colon26 bearing mice): attenuated the reduction
tumor growth ([7]; mice bearing colon26 subcutaneously): slightly stimulated
production of interleukin-1 (IL-1) (human monocytes): inhibited
LPS-induced increase of IL-1 in the blood (interleukin-1 (IL-1)): suppressed

SMILES: COc1ccc2c(C(=S)N(C)CC(=O)O)cccc2c1C(F)(F)F [tolrestat]
reduction of the glutathione conjugate of adenine propenal in the presence of AR inhibitor [3]: significantly prevented
reduction of the glutathione conjugate of adenine propenal in the presence of AR inhibitor (COS-7 cells [4]): significantly prevented

SMILES: O=C(O)/C=C/c1ccccc1 [trans-cinnamic acid]
inhibition against rat AR [6]: weak inhibition

SMILES: N#CC(=Cc1ccc(O)cc1)C(=O)O [α-cyano-4-hydroxycinnamic acid]
IC50 (human aldose reductase): 0.08 ± 0.005 µM
Ki (human aldose reductase): 0.085 µM
inhibition pattern with respect to reduction of glyceraldehyde, forward direction (human aldose reductase; recombinant hAR, Lineweaver-Burk plot): partial noncompetitive inhibition pattern
